# Assay results from patent EP4733301A1 (priority 2023, dated 2025).
# Key:
# [1] = X-ray-induced release of coumarin reporter 7-Deacca from Compounds 1-9 in phosphate buffer (UPLC-MS); format: physicochemical; details: for release efficiency in KNO3 solution relative to control: 10 mM KNO3 added; for release efficiency (in words): NAP esters; for reactivity to radiation reduction: ortho-/para-substituted esters versus meta-substituted ones (Compounds 2, 5, 8)
# Method: (§1) Pretreated solution (approx. 1-2 mL) was sealed in glass vials with rubber stoppers and metal caps. All tubular radiation experiments were pretreated using the freeze-thaw method to remove dissolved oxygen from the solution. The solution was frozen, then vacuum was applied for several minutes until thawed to room temperature.
# X-ray irradiation was performed using an X-ray generator (RS2000 Pro 225, 225 kV, 17.7 mA; Rad Source Technologies, Inc).
# (§2) Tubes were irradiated with X-rays, with a total dose of 0-60 Gy, at a rate of 2 Gy/min. Cells were irradiated with X-rays at different doses at a rate of 2 Gy/min.
# • 1. Standard preparation and calibration curves. The standard (coumarin, MeRho or MMAE) was dissolved in DMSO solution to make a 10 mM stock solution. The stock was diluted with deionized water to obtain solutions of suitable concentration gradients. These standard solutions were analyzed by UPLC-MS to generate calibration curves for the respective standard compounds. The peak areas of the target compounds were within the linear range of the curves. The relative standard deviation for duplicate injections of each standard solution was less than 5.0%. • 2. Analysis and calculation. After different treatments, the reaction mixtures were analyzed by ultra-performance liquid chromatography-mass spectrometry. The amount of cargo was calculated as equivalents of their respective external standard.
# (§3) As a representative example, the detailed procedure for X-ray-induced reduction of Compound 1 is described below. A stock solution of Compound 1 (10 mM in DMSO) was diluted in PB (0.02 M, pH 7.4) to a final concentration of 10 µM. Solutions were deoxygenated using the aforementioned deoxygenation step prior to X-ray irradiation from 0 to 60 Gy. Reaction mixtures were analyzed using UPLC and a fluorescence spectrometer, and amount of product release was quantified via standard curves.
# (§4) The elution program for Compounds 1-9 and NAPC-MeRho was Method a: H2O + 5% ACN (0 min)-95% H2O + 5% ACN (0.2 min)-5% H2O + 95% ACN (2.8 min)-5% H2O + 95% ACN (2.9 min)-95% H2O + 5% ACN (3.0 min)-95% H2O + 5% ACN (4.0 min). Injection volume: 10 µL.
# 10 mM KNO3 was added to the radiation system of Compound 1 (10 µM, in PB, pH 7.4) Reactivity test (10 µM, 0.1% DMSO): Determination of 7-Deacca release in PB (20 mM, pH 7.4) after deoxygenation and 60 Gy X-ray irradiation. Encouragingly, UPLC-MS detected coumarin release (FIG. 32), with a release efficiency of 33.5 ± 9.1% (FIG. 4), resulting in 55.8 nM/Gy.
# 7-Deacca was designed to be protected by a series of molecules Compounds 2-9 with pyridyl, quinolinyl, and N-methylpyridyl groups. Stock solutions of Compounds 2-9 (10 mM in DMSO) were diluted in PB (10 µM, 0.1% DMSO), then irradiated with 60 Gy X-rays, and analyzed by UPLC-MS to determine the yield of free 7-Deacca (FIG. 35).
# 10 mM HCOONa or KNO3 was added to the radiation system of Compound 7 (10 µM, in PB, pH 7.4). […] It can be explained that radicalized HCOONa in water reacts with ·OH and hydrogen radicals (·H) to generate carboxylate radicals […], which is another reducing agent with a standard electrode potential of -1.90 V, which may also be a possible explanation for the difference in its radiation reduction efficiency. Compared to the quinolinyl moiety with higher electron density (lower reduction potential), the positive charge on the pyridyl moiety with lower electron density (higher reduction potential) has higher affinity for the negatively charged e^-aq, resulting in the highest radiation reduction efficiency among them for the pyridyl moiety.
# [2] = system: 4T1-FAP tumors; assay: Radiation activation of NAPC-MeRho in tumors, fluorescence of tumor sections; format: in vivo, BALB/c mice; details: 20 µL of 100 µM locally injected
# Method: Then, when examining the reduction of NAPC-MeRho in tumor-bearing mice, 20 µL of 100 µM NAPC-MeRho in PBS was locally injected into 4T1-FAP tumors, and X-ray therapy of 4 Gy was administered 30 minutes post-injection. Due to limited green light penetration, tumors were harvested and quickly frozen, and fluorescence intensity was quantified via confocal imaging. […] Furthermore, the MeRho signal was statistically greater than the non-irradiated group (FIG. 19), providing conclusive evidence that radiation reduction reactions are feasible in vivo.
# [3] = format: physicochemical
# Method: 20 µM NAPC-MeRho was mixed with an equal volume of 2 mM sodium ascorbate solution, incubated and detected at different time points using a fluorescence spectrometer and UPLC-MS. Stability test results in cysteine and γ-glutathione solutions were the same.
# (§5) The inventors performed proof-of-concept for a radiation-responsive fluorescent probe NAPC-MeRho (FIG. 13), designed for quantitative analysis of radiation-induced release. The NAPC linker selectively responds to e^-aq generated by X-rays, where C-O bond cleavage of the carbamate occurs, followed by decarboxylation to release fluorescent MeRho (FIG. 13). Under physiological conditions, irradiating 10 µM NAPC-MeRho with a gradient dose from 0 to 60 Gy caused fluorescence intensity to increase in a linear manner (FIG. 14 and FIG. 15), and UPLC spectra determined a G-value for MeRho release of 140 nM/Gy (FIG. 15). To test whether the radiation reduction reaction can occur in living cells without interference, stability to biological reducing agents and cytotoxicity to different cell lines were evaluated. […] VcNa at pH 7.4, and cell viability with 10 µM NAPC-MeRho was greater than 95%.
# [4] = system: 4T1-FAP, HT1080-FAP and U87-MG cells; format: cell-based; details: 10 µM NAPC-MeRho, different cell lines
# Method: as §5
# Cell viability was assessed using CCK-8 assay. Each experiment was performed in triplicate. […] Incubated at 37 °C, 5% CO2 for 2 hours, absorbance was measured at 450 nm. The absorbance of treated cells was compared to that of the control group, whose viability was set at 100%.
# [5] = system: 4T1-FAP cells; assay: Confocal fluorescence imaging of radiation-induced MeRho release in cells; format: cell-based, Mouse; details: 10 µM
# Method: (§6) Typically, cells were seeded at a density of 2×10^5 cells/mL in 35-mm confocal dishes and cultured under hypoxic conditions in an incubator containing 5% CO2 at 37 °C for 24 hours. A stock solution of NAPC-MeRho (10 mM) was prepared in DMSO. Attached cells were washed twice with PBS before adding the fluorescence probe at a final concentration of 10 µM in 1 mL deoxygenated HBSS. After hypoxic incubation at 37 °C for 30 min, they were subjected to X-ray irradiation for […] (0, 4, 8, 16 Gy), and fluorescence images were taken with a laser scanning confocal microscope (Nikon, Japan). Excitation wavelength was 488 nm, fluorescence emission window was 500-530 nm. For imaging quantification, all cells on the image were set as regions of interest, and fluorescence intensity was measured using Nikon imaging software (version 4.0).
# (§7) Subsequent irradiation with 4, 8, and 16 Gy presented the appearance of green fluorescence from MeRho release (FIG. 16, right lanes), with fluorescence intensity positively correlated with radiation dose (FIG. 17).
# [6] = X-ray-induced MeRho release from NAPC-MeRho in PB (fluorescence, UPLC); format: physicochemical; details: 10 µM, gradient dose 0 to 60 Gy
# Method: as §3, §4
# The inventors performed proof-of-concept for a radiation-responsive fluorescent probe NAPC-MeRho (FIG. 13), designed for quantitative analysis of radiation-induced release. […] Under physiological conditions, irradiating 10 µM NAPC-MeRho with a gradient dose from 0 to 60 Gy caused fluorescence intensity to increase in a linear manner (FIG. 14 and FIG. 15), and UPLC spectra determined a G-value for MeRho release of 140 nM/Gy (FIG. 15). To test whether the radiation reduction reaction can occur in living cells without interference, stability to biological reducing agents and cytotoxicity to different cell lines were evaluated. […]
# [7] = system: U87MG cells; assay: Confocal fluorescence imaging of radiation-induced MeRho release in cells; format: cell-based; details: 10 µM, hypoxic conditions, 30 minutes, no radiation
# Method: as §6, §7
# [8] = system: HT1080-FAP cells; assay: as above; format: cell-based, Human; details: 10 µM, hypoxic conditions, 30 minutes, no radiation
# Method: as §6, §7
# [9] = X-ray-induced AMC release from Compound 10 in PB (UPLC); format: physicochemical; details: 10 µM, 0.02 M PB pH 7.4, 0-60 Gy
# Method: as §1, §2, §3
# (§8) Method B was used for elution of Compound 10, mixtures of Compound 7 with other RPGs, and mixtures of Compound 10 with other rpg: 95% H2O + 5% ACN (0 min)-95% H2O + 5% ACN (0.2 min)-70% H2O + 30% ACN (3.0 min)-70% H2O + 30% ACN (3.6 min)-95% H2O + 5% ACN (3.7 min)-95% H2O + 5% ACN (5.0 min). Injection volume: 10 µL.
# The inventors synthesized Compound 10 (NAPC-AMC) containing NAP-protected 7-amino-4-methylcoumarin (AMC). […]
# [10] = Competition reaction of Compound 10 with prior-art RPGs (Compounds 11, 12, 13) under 60 Gy X-ray; format: physicochemical; details: each component 10 µM in PB pH 7.4, deoxygenated, versus Compounds 11, 12, 13
# Method: as §8
# The inventors mixed the reported RPGs with Compound 10, providing solutions of [10+11], [10+12], [10+13], respectively (each component: 10 µM in PB, pH 7.4). The solutions were deoxygenated and irradiated with 60 Gy X-rays, and their release efficiencies were analyzed by UPLC-MS (FIG. 11) and summarized in FIG. 12. The lower part of the bars and the upper part of the bars represent the activation ratio of Compound 10 and each competing component in the irradiation system, respectively.
# [11] = 10 µM, 20 Gy irradiation (control conditions)
compound,measurement,setting,value
"CCN(CC)c1ccc2cc(C(=O)OCc3cc[n+](C)cc3)c(=O)oc2c1 [Compound 7, (4-((7-(diethylamino)-2-oxo-2H-chromene-3-carbonyl)oxy)methyl)-1-methylpyridin-1-ium]",coumarin release efficiency,"[1]; 10 µM, 20 Gy + 10 mM HCO2Na",53.8%
same,coumarin release efficiency,"[1]; 10 µM, 20 Gy + 10 mM KNO3",0.0%
same,coumarin release efficiency,[1]; [11],27.6%
same,reduction yield on addition of HCOONa,"[1]; 10 mM HCOONa added, 10 µM in PB pH 7.4",approximately doubled
same,release efficiency in KNO3 solution relative to control,[1]; 10 µM in PB pH 7.4,significantly reduced
same,release efficiency (in words),[1]; 60 Gy X-ray,high release efficiencies
same,G-value (release of the reporter molecule),"[1]; X-ray dose gradient 0 to 60 Gy, UPLC",140 nM/Gy
same,reactivity to radiation reduction,[1]; 60 Gy X-ray,more reactive
"CCN(CC)c1ccc2cc(C(=O)OCc3ccccn3)c(=O)oc2c1 [Compound 3, Pyridin-2-ylmethyl-7-(diethylamino)-2-oxo-2H-chromene-3-carboxylate]",reactivity to radiation reduction,[1]; 60 Gy X-ray,more reactive
"CCN(CC)c1ccc2cc(C(=O)OCc3ccc4ccccc4n3)c(=O)oc2c1 [Compound 6, Quinolin-2-ylmethyl-7-(diethylamino)-2-oxo-2H-chromene-3-carboxylate]",reactivity to radiation reduction,[1]; 60 Gy X-ray,more reactive
COc1ccc2c(c1)Oc1cc(NC(=O)OCc3cc[n+](C)cc3)ccc1C21OC(=O)c2ccccc21 (stereo not shown) [NAPC-MeRho],fluorescence signal in tumor sections,[2]; 4 Gy X-ray 30 minutes post-injection,significantly increased
same,fluorescence signal in tumor sections,[2]; NAPC-MeRho only,limited fluorescence signal
same,stability to reducing agent VcNa,"[3]; 10 µM, 100 eq. VcNa, pH 7.4",highly stable
same,stability in cysteine and γ-glutathione solutions,[3]; compared with result in sodium ascorbate solution,the same
same,cell viability,[4],greater than 95%
same,spontaneous release of MeRho,"[5]; hypoxic conditions, 30 minutes, no radiation",no spontaneous release of MeRho
same,increase of fluorescence intensity,[5]; 4 Gy radiation,14.4 fold
same,increase of fluorescence intensity,[5]; 8 Gy radiation,27.9 fold
same,increase of fluorescence intensity,[5]; 16 Gy radiation,54.5 fold
same,G-value for MeRho release,[6],140 nM/Gy
same,spontaneous release of MeRho,[7],no spontaneous release of MeRho
same,spontaneous release of MeRho,[8],no spontaneous release of MeRho
"CCN(CC)c1ccc2cc(C(=O)OCc3ccncc3)c(=O)oc2c1 [Compound 1, Pyridin-4-ylmethyl-7-(diethylamino)-2-oxo-2H-chromene-3-carboxylate]",release efficiency (coumarin / 7-Deacca release),"[1]; 10 µM, 0.1% DMSO, PB 20 mM pH 7.4, deoxygenated, 60 Gy X-ray",33.5 ± 9.1%
same,coumarin release efficiency,"[1]; 10 µM, 20 Gy + 10 mM HCO2Na",27.3%
same,coumarin release efficiency,"[1]; 10 µM, 20 Gy + 10 mM KNO3",1.3%
same,coumarin release efficiency,[1]; [11],16.7%
same,release efficiency in KNO3 solution relative to control,[1]; 10 µM in PB pH 7.4,significantly reduced
same,release per radiation dose,"[1]; from release efficiency at 60 Gy, 10 µM in PB pH 7.4",55.8 nM/Gy
same,reactivity to radiation reduction,[1]; 60 Gy X-ray,more reactive
"CCN(CC)c1ccc2cc(C(=O)OCc3cccc[n+]3C)c(=O)oc2c1 [Compound 9, (2-((7-(diethylamino)-2-oxo-2H-chromene-3-carbonyl)oxy)methyl)-1-methylpyridin-1-ium]",release efficiency (in words),[1]; 60 Gy X-ray,high release efficiencies
same,reactivity to radiation reduction,[1]; 60 Gy X-ray,more reactive
"CCN(CC)c1ccc2cc(C(=O)OCc3ccnc4ccccc34)c(=O)oc2c1 [Compound 4, Quinolin-4-ylmethyl-7-(diethylamino)-2-oxo-2H-chromene-3-carboxylate]",reactivity to radiation reduction,[1]; 60 Gy X-ray,more reactive
Cc1cc(=O)oc2cc(NC(=O)OCc3cc[n+](C)cc3)ccc12 [Compound 10],G (AMC release versus radiation dose),[9],145 nM/Gy
same,additional activation versus previously reported structures in competition,[10],20-40%
